target: TAAR1 (Mus musculus, UniProt Q923Y8); assay: TAAR1 radioligand binding, membranes of stably transfected HEK293 cells (mouse); details: not given
Protocol: For the construction of expression plasmids the coding sequences of human, rat and mouse TAAR 1 were amplified from genomic DNA essentially as described by Lindemann et al.. The Expand High Fidelity PCR System (Roche Diagnostics) was used with 1.5 mM Mg^2+ and purified PCR products were cloned into pCR2.1-TOPO cloning vector (Invitrogen) following the instructions of the manufacturer. PCR products were subcloned into the pIRESneo2 vector (BD Clontech, Palo Alto, Calif.), and expression vectors were sequence verified before introduction in cell lines.
HEK293 cells (ATCC #CRL-1573) were cultured essentially as described Lindemann et al. (2005). For the generation of stably transfected cell lines HEK293 cells were transfected with the pIRESneo2 expression plasmids containing the TAAR coding sequences (described above) with Lipofectamine 2000 (Invitrogen) according to the instructions of the manufacturer, and 24 hrs post transfection the culture medium was supplemented with 1 mg/ml G418 (Sigma, Buchs, Switzerland). After a culture period of about 10 d clones were isolated, expanded and tested for responsiveness to trace amines (all compounds purchased from Sigma) with the cAMP Biotrak Enzyme immunoassay (EIA) System (Amersham) following the non-acetylation EIA procedure provided by the manufacturer.
Cells at confluence were rinsed with ice-cold phosphate buffered saline without Ca^2+ and Mg^2+ containing 10 mM EDTA and pelleted by centrifugation at 1000 rpm for 5 min at 4° C. The pellet was then washed twice with ice-cold phosphate buffered saline and cell pellet was frozen immediately by immersion in liquid nitrogen and stored until use at −80° C. Cell pellet was then suspended in 20 ml HEPES-NaOH (20 mM), pH 7.4 containing 10 mM EDTA, and homogenized with a Polytron (PT 3000, Kinematica) at 10,000 rpm for 10 s. The homogenate was centrifuged at 48,000×g for 30 min at 4° C. and the pellet resuspended in 20 ml HEPES-NaOH (20 mM), pH 7.4 containing 0.1 mM EDTA (buffer A), and homogenized with a Polytron at 10,000 rpm for 10 s. The homogenate was then centrifuged at 48,000×g for 30 min at 4° C. and the pellet resuspended in 20 ml buffer A, and homogenized with a Polytron at 10,000 rpm for 10 s. Protein concentration was determined by the method of Pierce (Rockford, Ill.). The homogenate was then centrifuged at 48,000×g for 10 min at 4° C., resuspended in HEPES-NaOH (20 mM), pH 7.0 including MgCl2 (10 mM) and […] homogenized with a Polytron at 10,000 rpm for 10 s.
Binding assay was performed at 4° C. in a final volume of 1 ml, and with an incubation time of 30 min. […] Non-specific binding was defined as the amount of [^3H]-rac-2-(1,2,3,4-tetrahydro-1-naphthyl)-2-imidazoline bound in the presence of the appropriate unlabelled ligand (10 μM). Competing ligands were tested in a wide range of concentrations (10 pM-30 μM). […] Each experiment was performed in duplicate. All incubations were terminated by rapid filtration through UniFilter-96 plates (Packard Instrument Company) and glass filter GF/C, pre-soaked for at least 2 h in polyethylenimine 0.3%, and using a Filtermate 96 Cell Harvester (Packard Instrument Company). The tubes and filters were then washed 3 times with 1 ml aliquots of cold buffer B. Filters were not dried and soaked in Ultima gold (45 μl/well, Packard Instrument Company) and bound radioactivity was counted by a TopCount Microplate Scintillation Counter (Packard Instrument Company).

Row | SMILES | Ki [µM]
1 | NC1=NC(c2cc(Cl)cc(Cl)c2)CO1 (racemic) [Example 189, (RS)-4-(3,5-Dichloro-phenyl)-4,5-dihydro-oxazol-2-ylamine] | 0.0008
2 | Cc1ccc(C2COC(N)=N2)cc1Cl (racemic) [Example 351, (RS)-4-(3-Chloro-4-methyl-phenyl)-4,5-dihydro-oxazol-2-ylamine] | 0.0024
3 | NC1=NC(c2cccc(Cl)c2F)CO1 (racemic) [Example 18, (RS)-4-(3-Chloro-2-fluoro-phenyl)-4,5-dihydro-oxazol-2-ylamine] | 0.0022
4 | Cc1cc(F)ccc1C1COC(N)=N1 (racemic) [Example 337, (RS)-4-(4-Fluoro-2-methyl-phenyl)-4,5-dihydro-oxazol-2-ylamine] | 0.0034
5 | COc1ccc(C2COC(N)=N2)c(C(F)(F)F)c1 (racemic) [Example 229, (RS)-4-(4-Methoxy-2-trifluoromethyl-phenyl)-4,5-dihydro-oxazol-2-ylamine] | < 3
6 | Cc1ccc(F)cc1C1COC(N)=N1 (racemic) [Example 250, (RS)-4-(5-Fluoro-2-methyl-phenyl)-4,5-dihydro-oxazol-2-ylamine] | 0.0022
7 | NC1=NC(c2ccccc2Br)CO1 (racemic) [Example 237, (RS)-4-(2-Bromo-phenyl)-4,5-dihydro-oxazol-2-ylamine] | 0.0025
8 | NC1=NC(c2ccc3ccccc3c2)CO1 (racemic) [Example 33, (RS)-4-Naphthalen-2-yl-4,5-dihydro-oxazol-2-ylamine] | 0.0007
9 | NC1=N[C@@H](c2ccc(F)cc2F)CO1 [37b (S), (S)-4-(2,4-Difluoro-phenyl)-4,5-dihydro-oxazol-2-ylamine] | 0.0087

same assay, conditions: mouse/rat; cell not marked 'rat'; radioligand [3H]-rac-2-(1,2,3,4-tetrahydro-1-naphthyl)-2-imidazoline, 4° C.; read-out: Ki (μM) mouse/rat

Row | SMILES | Ki [µM]
10 | NC1=N[C@@H](CCc2cc(Cl)cc(Cl)c2)CO1 [Example 138, (S)-4-[2-(3,5-Dichloro-phenyl)-ethyl]-4,5-dihydro-oxazol-2-ylamine] | 0.0012
11 | CCC(C[C@H]1COC(N)=N1)c1ccc(F)c(Cl)c1 (stereo partly drawn) [Example 356, (S)-4-[2-(3-Chloro-4-fluoro-phenyl)-butyl]-4,5-dihydro-oxazol-2-ylamine] | 0.0043
12 | C[C@]1(c2cccc(C(F)(F)F)c2)COC(N)=N1 [Example 219, (S)-4-Methyl-4-(3-trifluoromethyl-phenyl)-4,5-dihydro-oxazol-2-ylamine] | 0.0009
13 | C[C@]1(c2ccc(Cl)cc2)COC(N)=N1 [Example 136, (S)-4-(4-Chloro-phenyl)-4-methyl-4,5-dihydro-oxazol-2-ylamine] | 0.0038
14 | NC1=N[C@@H](CSc2ccc(Cl)cc2)CO1 [Example 370, (R)-4-(4-Chloro-phenylsulfanylmethyl)-4,5-dihydro-oxazol-2-ylamine] | 0.0037
15 | NC1=N[C@@H](CCc2ccccc2Cl)CO1 [Example 267, (S)-4-[2-(2-Chloro-phenyl)-ethyl]-4,5-dihydro-oxazol-2-ylamine] | 0.0011
16 | C[C@]1(c2cc(F)c(Cl)cc2F)COC(N)=N1 [Example 289, (S)-4-(4-Chloro-2,5-difluoro-phenyl)-4-methyl-4,5-dihydro-oxazol-2-ylamine] | 0.0017
17 | NC1=N[C@@H](COCc2ccccc2)CO1 [Example 350, (S)-4-Benzyloxymethyl-4,5-dihydro-oxazol-2-ylamine] | 0.0064
18 | NC1=N[C@@H](c2cccc(Br)c2)CO1 [Example 198, (+)-(S)-4-(3-Bromo-phenyl)-4,5-dihydro-oxazol-2-ylamine] | 0.002
19 | NC1=N[C@@H](CCc2cc(F)cc(C(F)(F)F)c2)CO1 [Example 159, (S)-4-[2-(3-Fluoro-5-trifluoromethyl-phenyl)-ethyl]-4,5-dihydro-oxazol-2-ylamine] | 0.001
20 | CC1(c2ccc(Cl)cc2Cl)COC(N)=N1 (racemic) [Example 294, (RS)-4-(2,4-Dichloro-phenyl)-4-methyl-4,5-dihydro-oxazol-2-ylamine] | 0.0038
21 | NC1=N[C@@H](CCc2ccc(F)cc2)CO1 [Example 85, (S)-4-[2-(4-Fluoro-phenyl)-ethyl]-4,5-dihydro-oxazol-2-ylamine] | 0.0011
22 | NC1=N[C@@H](CCc2ccc(OC(F)(F)F)c(Cl)c2)CO1 [Example 150, (S)-4-[2-(3-Chloro-4-trifluoromethoxy-phenyl)-ethyl]-4,5-dihydro-oxazol-2-ylamine] | 0.0009
23 | COc1ccc([C@H]2COC(N)=N2)c(C(F)(F)F)c1 [Example 240, (+)-(S)-4-(4-Methoxy-2-trifluoromethyl-phenyl)-4,5-dihydro-oxazol-2-ylamine] | 0.0032
24 | NC1=N[C@@H](CCc2cccc(C(F)(F)F)c2Cl)CO1 [Example 151, (S)-4-[2-(2-Chloro-3-trifluoromethyl-phenyl)-ethyl]-4,5-dihydro-oxazol-2-ylamine] | 0.001
25 | Cc1ccc(F)c(CC2COC(N)=N2)c1 (racemic) [Example 73, (RS)-4-(2-Fluoro-5-methyl-benzyl)-4,5-dihydro-oxazol-2-ylamine] | 0.0089

Row | SMILES | Ki [µM]
26 | CCC(C[C@H]1COC(N)=N1)c1cc(Cl)ccc1F (stereo partly drawn) [Example 358, (S)-4-[2-(5-Chloro-2-fluoro-phenyl)-butyl]-4,5-dihydro-oxazol-2-ylamine] | 0.0084
27 | NC1=N[C@@H](CCc2ccc(F)c(F)c2)CO1 [Example 89, (S)-4-[2-(3,4-Difluoro-phenyl)-ethyl]-4,5-dihydro-oxazol-2-ylamine] | 0.0013
28 | NC1=N[C@@H](CC2(c3ccccc3)CC2)CO1 [Example 342, (S)-4-(1-Phenyl-cyclopropylmethyl)-4,5-dihydro-oxazol-2-ylamine] | 0.0045
29 | NC1=N[C@@H](c2cc(Cl)ccc2Cl)CO1 [Example 298, (+)-(S)-4-(2,5-Dichloro-phenyl)-4,5-dihydro-oxazol-2-ylamine] | 0.0004
30 | NC1=N[C@@H](CCc2ccc(Cl)cc2)CO1 [Example 256, (S)-4-[2-(4-Chloro-phenyl)-ethyl]-4,5-dihydro-oxazol-2-ylamine] | 0.0006
31 | NC1=N[C@@H](CCc2cccc(C(F)(F)F)c2)CO1 [Example 120, (S)-4-[2-(3-Trifluoromethyl-phenyl)-ethyl]-4,5-dihydro-oxazol-2-ylamine] | 0.0014
32 | C[C@]1(c2cc(Cl)ccc2F)COC(N)=N1 [Example 270, (S)-4-(5-Chloro-2-fluoro-phenyl)-4-methyl-4,5-dihydro-oxazol-2-ylamine] | 0.0016
33 | C[C@]1(CCc2ccc(Cl)cc2)COC(N)=N1 [Example 244, (S)-4-[2-(4-Chloro-phenyl)-ethyl]-4-methyl-4,5-dihydro-oxazol-2-ylamine] | 0.0057
34 | NC1=N[C@@H](CCc2ccccc2F)CO1 [Example 111, (S)-4-[2-(2-Fluoro-phenyl)-ethyl]-4,5-dihydro-oxazol-2-ylamine] | 0.0011
35 | NC1=N[C@@H](Cc2cccc(C(F)(F)F)c2)CO1 [Example 63, (S)-4-(3-Trifluoromethyl-benzyl)-4,5-dihydro-oxazol-2-ylamine] | 0.0086
36 | NC1=N[C@@H](CCc2cccc(Cl)c2Cl)CO1 [Example 149, (S)-4-[2-(2,3-Dichloro-phenyl)-ethyl]-4,5-dihydro-oxazol-2-ylamine] | 0.0019
37 | NC1=N[C@@H](c2ccc(F)c(Cl)c2)CO1 [Example 172, (S)-4-(3-chloro-4-fluoro-phenyl)-4,5-dihydro-oxazol-2-ylamine] | 0.0019
38 | C[C@]1(CCc2ccc(F)cc2)COC(N)=N1 [Example 255, (S)-4-[2-(4-Fluoro-phenyl)-ethyl]-4-methyl-4,5-dihydro-oxazol-2-ylamine] | 0.0074
39 | C[C@H](C[C@H]1COC(N)=N1)c1ccccc1 [82 (S, R), (S)-4-((R)-2-Phenyl-propyl)-4,5-dihydro-oxazol-2-ylamine] | 0.0016
40 | NC1=N[C@@H](CSc2ccccc2)CO1 [Example 195, (R)-4-Phenylsulfanylmethyl-4,5-dihydro-oxazol-2-ylamine] | 0.0018
